Measurements taken from publication PMC5053523, “In Vitro Antibacterial Activity of Rhodanine Derivatives against Pathogenic Clinical Isolates” (PLoS ONE, 2016).
Like-named read-outs stand apart in the source and are kept apart here.

Key:
K. pneumoniae = assay: Broth microdilution MIC, K. pneumoniae; type: cell-based
Escherichia coli O157:H7 [1] = assay: MIC with/without PMBN, Escherichia coli O157:H7; type: cell-based
Method in brief: (§1)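 Gram-negative MICs were determined for rhodanines alongside control antibiotics, each combined with sub-inhibitory colistin or PMBN. Further testing used the efflux-deficient E. coli SM1411ΔacrAB, missing the AcrAB multidrug pump.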

P. aeruginosa = assay: Broth microdilution MIC, P. aeruginosa; type: cell-based; conditions: Pseudomonas aeruginosa
Escherichia coli Δ acrAB = assay: MIC against E. coli 1411 and AcrAB efflux pump deficient E. coli SM1411Δ acrAB; type: cell-based
Method in brief: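 Rhodanines and control antibiotics are tested for MIC against Gram-negative bacteria while a sub-inhibitory level of colistin or PMBN is present. A strain of E. coli lacking the AcrAB efflux pump (SM1411ΔacrAB) serves as an additional test organism.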

Escherichia coli O157:H7 [2] = assay: MIC with/without sub-MIC colistin, Escherichia coli O157:H7; type: cell-based
Method in brief: as §1

Pseudomonas aeruginosa [3] = assay: MIC with/without PMBN, Pseudomonas aeruginosa; type: cell-based
Method in brief: as §1

B. cereus = assay: Broth microdilution MIC/MBC, B. cereus; type: cell-based; conditions: Bacillus cereus; for MBC: read-out: MBC; for MIC: read-out: MIC
Text: The broth microdilution technique was used, followed by subculturing on agar plates that were rhodanine—free.

Klebsiella pneumoniae = assay: MIC with/without sub-MIC colistin, Klebsiella pneumoniae; type: cell-based
Method in brief: as §1

Acinetobacter baumannii [4] = assay: MIC with/without PMBN, Acinetobacter baumannii; type: cell-based
Method in brief: as §1

Salmonella Typhimurium [5] = assay: MIC with/without sub-MIC colistin, Salmonella Typhimurium; type: cell-based
Method in brief: as §1

MRSA USA300 = assay: MIC against MRSA USA300 with and without 4% human serum albumin; type: cell-based, Staphylococcus aureus; conditions: Staphylococcus aureus, read-out: MIC against MRSA USA300
Method in brief: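 Broth microdilution MIC per CLSI against MRSA USA300, run in tryptic soy broth alone and with 4% human serum albumin. MIC is the lowest concentration inhibiting growth.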

Acinetobacter baumannii [6] = assay: Broth microdilution MIC, Acinetobacter baumannii; type: cell-based
[7] = tested on: vancomycin resistant enterococci (VRE) E. faecalis; assay: Broth microdilution MIC/MBC, VRE E. faecalis; type: cell-based; conditions: for MIC: read-out: MIC
Salmonella Typhimurium [8] = assay: MIC with/without PMBN, Salmonella Typhimurium; type: cell-based
Method in brief: as §1

Bacillus Strains = assay: Broth microdilution MIC50/MIC90 and MIC range, Bacillus strains panel; type: cell-based, Bacillus spp.; conditions: 10 Bacillus strains
Text: The broth microdilution technique was used, followed by subculturing on agar plates that were rhodanine—free. […] The MICs reported represent the lowest concentration of each compound necessary to inhibit bacterial growth and the MBCs represent the lowest concentration required to reduce the initial bacterial inoculum by ≥ 99.9%.

Pseudomonas aeruginosa [9] = assay: MIC with/without sub-MIC colistin, Pseudomonas aeruginosa; type: cell-based
Method in brief: as §1

[10] = tested on: vancomycin resistant enterococci (VRE) E. faecium; assay: Broth microdilution MIC/MBC, VRE E. faecium; type: cell-based; conditions: for MIC: read-out: MIC
[11] = NRS201, B. cereus NRS 201 NR-2488
[12] = Salmonella enterica, ATCC 700720 / TYPHIMURIUM
[13] = E. faecalis NR31972 Strain SF 28073
[14] = E. faecium HM 968 Strain ERV102
[15] = E. faecium NR31914 Strain E0120
[16] = E. faecium Patient #1–1 NR-31903

O=C(O)[C@H](Cc1ccccc1)N1C(=O)/C(=C/c2cccc(Oc3ccc(Cl)c(Cl)c3)c2)SC1=S [Rh 1]
8 µM: MIC (Escherichia coli O157:H7 [1]; Escherichia coli O157:H7 ATCC 35150, PMBN (+) 4 μg/mL, read-out: MIC) | MIC (MRSA USA300; Media TSB) | MBC ([7]; E. faecalis ERV103 HM-934) | MIC ([7]; E. faecalis ERV103 HM-934) | MIC [7, 13] | MBC ([7]; E. faecalis R712 HM-335) | MBC ([7]; E. faecalis S613 HM-334) | MIC ([7]; E. faecalis S613 HM-334) | MBC ([7]; E. faecalis TX0104 HM-201) | MIC ([7]; E. faecalis TX0104 HM-201) | MIC ([10]; E. faecium E417 HM-965) | MIC ([10]; E. faecium E1071 NR-28978) | MIC [10, 14] | MIC [10, 15]
2 µM: MBC (B. cereus; B. cereus BAG1X1-1 NR-28575) | MIC (B. cereus; B. cereus BAG1X1-1 NR-28575)
16 µM: MBC [10, 16]
> 128 µM: MIC (K. pneumoniae; Klebsiella pneumoniae) | MIC (Escherichia coli O157:H7 [1]; Escherichia coli, ATCC700728) | MIC (P. aeruginosa; ATCC9721) | MIC (P. aeruginosa; ATCC15442) | MIC (Escherichia coli O157:H7 [2]; Escherichia coli, ATCC35150) | MIC (Escherichia coli O157:H7 [2]; Escherichia coli, ATCC700728) | MIC (Pseudomonas aeruginosa [3]; Pseudomonas aeruginosa, ATCC9721) | MIC (Klebsiella pneumoniae; Klebsiella pneumoniae, BAA2146) | MIC (Acinetobacter baumannii [4]; Acinetobacter baumannii, ATCCBAA747) | MIC (Acinetobacter baumannii [4]; Acinetobacter baumannii, ATCCBAA19606) | MIC (Salmonella Typhimurium [5]; [12]) | MIC (Acinetobacter baumannii [6]; ATCC13345) | MIC (Acinetobacter baumannii [6]; ATCC17786) | MIC (Salmonella Typhimurium [8]; [12]) | MIC (Pseudomonas aeruginosa [9]; Pseudomonas aeruginosa, ATCC921)
> 64 µM: MIC (Escherichia coli Δ acrAB; E.coli 1411) | MIC (Escherichia coli Δ acrAB; E.coli 1411 SM (Δ acrAB, AcrAB efflux pump deficient)) | MIC (MRSA USA300; 24 h, Media TSB + 4% HSA) | MBC ([10]; E. faecium E417 HM-965)
>64 µM: MIC (Escherichia coli O157:H7 [1]; Escherichia coli O157:H7 ATCC 700728, PMBN (+) 4 μg/mL, read-out: MIC) | MIC (Escherichia coli O157:H7 [2]; Escherichia coli O157:H7 ATCC 35150, colistin (+) […], read-out: MIC) | MIC (Escherichia coli O157:H7 [2]; Escherichia coli O157:H7 ATCC 700728, colistin (+) […], read-out: MIC) | MIC (Pseudomonas aeruginosa [3]; Pseudomonas aeruginosa ATCC 9721, PMBN (+) 4 μg/mL, read-out: MIC) | MIC (Klebsiella pneumoniae; Klebsiella pneumoniae ATCC BAA 2146, colistin (+) […]) | MIC (Acinetobacter baumannii [4]; Acinetobacter baumannii ATCC BAA747, PMBN (+) 4 μg/mL, read-out: MIC) | MIC (Acinetobacter baumannii [4]; Acinetobacter baumannii ATCC BAA19606, PMBN (+) 4 μg/mL, read-out: MIC) | MIC (Salmonella Typhimurium [5]; Salmonella Typhimurium ATCC 700720, colistin (+) […], read-out: MIC) | MIC (Pseudomonas aeruginosa [9]; Pseudomonas aeruginosa ATCC 921, colistin (+) […], read-out: MIC)
4 µM: MBC (B. cereus; B. cereus BAG1O-2 NR-28582) | MIC (B. cereus; B. cereus BAG1O-2 NR-28582) | MBC (B. cereus; B. cereus BAG1X2-1 NR-28578) | MIC (B. cereus; B. cereus BAG1X2-1 NR-28578) | MBC (B. cereus; B. cereus G9241 NR-9564) | MIC (B. cereus; B. cereus G9241 NR-9564) | MBC (B. cereus; B. cereus VD014 NR-22141) | MIC (B. cereus; B. cereus VD014 NR-22141) | MBC (B. cereus; B. cereus VD115 NR-22148) | MIC (B. cereus; B. cereus VD115 NR-22148) | MBC (B. cereus; B. cereus VD148 NR-22150) | MIC (B. cereus; B. cereus VD148 NR-22150) | MBC (B. cereus; [11]) | MIC (B. cereus; [11]) | MIC ([7]; E. faecalis R712 HM-335) | MIC50 (Bacillus Strains) | MIC90 (Bacillus Strains) | MIC [10, 16]
32 µM: MBC [7, 13] | MBC [10, 14]
> 256 µM: MIC (Escherichia coli O157:H7 [1]; Escherichia coli, ATCC35150)
64 µM: MBC ([10]; E. faecium E1071 NR-28978) | MBC [10, 15]
>128 µM: MIC (K. pneumoniae; K. pneumoniae NR-15417) | MIC (Salmonella Typhimurium [8]; Salmonella Typhimurium ATCC 700720, PMBN (+) 4 μg/mL, read-out: MIC)
